Target: T1, human F508del CFTR (Homo sapiens, UniProt P13569, DEL508-508)
T1 construct: expressed in transfected cells; host or cells: Fisher Rat Thyroid (FRT) cells
Experiment: CFTR-YFP High Throughput Assay
Type: cell-based
Settings: FRT cells expressing human F508del CFTR and YFP; for Emax: EMax normalized to the positive control, read-out: % Efficacy
Outline: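 Corrector mode: 24-26 h compound exposure (2 nM-40 μM, 37° C) of FRT cells carrying human F508del CFTR and YFP-H148Q/I152L, followed by washing and 60-120 min RT stimulation with 20 μM forskolin and 30 μM P3. CFTR activity is the least-squares-fitted rate of YFP quenching (Ex 500/Em 540 nm) after iodide addition.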

T1 sequence (P13569 with tags, fused parts or gaps DEL508-508): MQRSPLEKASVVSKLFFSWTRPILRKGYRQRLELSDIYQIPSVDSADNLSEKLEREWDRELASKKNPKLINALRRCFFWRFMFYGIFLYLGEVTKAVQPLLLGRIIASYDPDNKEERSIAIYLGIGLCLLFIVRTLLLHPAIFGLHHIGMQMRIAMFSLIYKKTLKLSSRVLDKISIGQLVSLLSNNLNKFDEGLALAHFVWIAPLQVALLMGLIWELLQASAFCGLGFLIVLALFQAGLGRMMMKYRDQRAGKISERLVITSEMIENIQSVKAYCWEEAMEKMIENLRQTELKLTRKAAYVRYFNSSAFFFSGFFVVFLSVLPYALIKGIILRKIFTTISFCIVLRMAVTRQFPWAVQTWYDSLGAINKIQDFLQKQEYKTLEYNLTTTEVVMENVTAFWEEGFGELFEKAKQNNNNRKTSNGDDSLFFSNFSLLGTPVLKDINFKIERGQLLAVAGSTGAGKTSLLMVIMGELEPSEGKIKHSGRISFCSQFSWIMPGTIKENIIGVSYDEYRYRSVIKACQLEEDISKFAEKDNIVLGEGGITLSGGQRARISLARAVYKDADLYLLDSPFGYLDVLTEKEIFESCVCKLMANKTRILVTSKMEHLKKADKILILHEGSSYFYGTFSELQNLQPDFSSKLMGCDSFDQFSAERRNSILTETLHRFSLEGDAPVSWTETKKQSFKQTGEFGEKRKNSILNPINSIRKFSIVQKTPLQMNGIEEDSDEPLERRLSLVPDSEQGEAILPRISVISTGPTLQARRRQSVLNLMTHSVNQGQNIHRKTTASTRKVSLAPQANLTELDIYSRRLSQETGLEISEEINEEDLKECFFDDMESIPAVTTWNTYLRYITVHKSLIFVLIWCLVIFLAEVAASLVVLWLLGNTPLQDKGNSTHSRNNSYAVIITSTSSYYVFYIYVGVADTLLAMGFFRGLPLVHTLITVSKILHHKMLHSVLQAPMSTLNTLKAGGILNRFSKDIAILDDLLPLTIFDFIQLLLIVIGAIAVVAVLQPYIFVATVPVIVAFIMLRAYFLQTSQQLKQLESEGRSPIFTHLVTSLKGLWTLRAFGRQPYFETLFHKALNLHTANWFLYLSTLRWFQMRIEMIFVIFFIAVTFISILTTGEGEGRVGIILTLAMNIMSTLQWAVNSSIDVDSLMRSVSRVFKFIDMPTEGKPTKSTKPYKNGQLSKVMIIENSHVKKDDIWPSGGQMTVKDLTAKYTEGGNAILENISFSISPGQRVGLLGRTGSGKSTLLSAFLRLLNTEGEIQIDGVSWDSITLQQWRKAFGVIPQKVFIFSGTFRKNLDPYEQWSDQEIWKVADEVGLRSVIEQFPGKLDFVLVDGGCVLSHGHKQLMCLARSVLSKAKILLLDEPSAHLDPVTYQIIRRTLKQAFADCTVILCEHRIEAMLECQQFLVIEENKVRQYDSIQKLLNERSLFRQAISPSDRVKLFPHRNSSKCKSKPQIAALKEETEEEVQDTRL

SMILES | Emax | EC50
CCOC(=O)c1ccc2c(=O)n(CC(=O)N(C)c3ccc4nc(C)oc4c3)nc(-c3cccc(Cl)c3)c2c1 [Example 66, ethyl 1-(3-chlorophenyl)-3-(2-(methyl(2-methylbenzo[d]oxazol-6-yl)amino)-2-oxoethyl)-4-oxo-3,4-dihydrophthalazine-7-carboxylate] | > 80% | < 10 µM
CCOC(=O)c1ccc2c(-c3cccc(F)c3)nn(CC(=O)N(C)c3ccc4nc(C)oc4c3)c(=O)c2c1 [Example 67, ethyl 1-(3-fluorophenyl)-3-(2-(methyl(2-methyl-benzo[d]oxazol-6-yl)amino)-2-oxoethyl)-4-oxo-3,4-dihydrophthalazine-6-carboxylate] | 30 to 80% | < 10 µM
CCOC(=O)c1ccc2c(=O)n(CC(=O)N(C)c3ccc4nc(C)oc4c3)nc(-c3cccc(F)c3)c2c1 [Example 68, ethyl 4-(3-fluorophenyl)-2-(2-(methyl(2-methyl-benzo[d]oxazol-6-yl)amino)-2-oxoethyl)-1-oxo-1,2-dihydrophthalazine-6-carboxylate] | 30 to 80% | < 10 µM
CCN(C(=O)Cn1nc(-c2ccc(S(N)(=O)=O)cc2)c2ccc(OC)cc2c1=O)c1ccc(OC(F)F)cc1 [Example 73, N-(4-(difluoromethoxy)phenyl)-N-ethyl-2-(7-methoxy-1-oxo-4-(4-sulfamoylphenyl)phthalazin-2(1H)-yl)acetamide] | 30 to 80% | < 10 µM
CCN(C(=O)Cn1nc(-c2cccc(C#N)c2)c2ccc(OC)cc2c1=O)c1ccc(OC(F)F)cc1 [Example 74, 2-(4-(3-cyanophenyl)-7-methoxy-1-oxophthalazin-2(1H)-yl)-N-(4-(difluoromethoxy)phenyl)-N-ethylacetamide] | 30 to 80% | 
COc1ccc2c(-c3cccc(C#N)c3)nn(CC(=O)N(c3ccc4c(c3)OC(F)(F)O4)C(C)C)c(=O)c2c1 [Example 77, 2-(4-(3-cyanophenyl)-7-methoxy-1-oxophthalazin-2(1H)-yl)-N-(2,2-difluorobenzo[d][1,3]dioxol-5-yl)-N-isopropylacetamide] | > 80% | 10 to 20 µM
COc1ccc2c(-c3cccc(C#N)c3)nn(CC(=O)N(c3ccc4c(c3)OC(F)(F)O4)C3CC3)c(=O)c2c1 [Example 79, 2-(4-(3-cyanophenyl)-7-methoxy-1-oxophthalazin-2(1H)-yl)-N-cyclopropyl-N-(2,2-difluorobenzo[d][1,3]dioxol-5-yl)acetamide] | > 80% | 
CCN(C(=O)Cn1nc(-c2ccc(S(N)(=O)=O)cc2)c2ccc(OC)cc2c1=O)c1ccc2nc(C)oc2c1 [Example 80, N-ethyl-2-(7-methoxy-1-oxo-4-(4-sulfamoylphenyl)phthalazin-2(1H)-yl)-N-(2-methylbenzo[d]oxazol-6-yl)acetamide] | 30 to 80% | 10 to 20 µM
CCN(C(=O)Cn1nc(-c2cccc(C#N)c2)c2ccc(OC)cc2c1=O)c1ccc2nc(C)oc2c1 [Example 81, 2-(4-(3-cyanophenyl)-7-methoxy-1-oxophthalazin-2(1H)-yl)-N-ethyl-N-(2-methylbenzo[d]oxazol-6-yl)acetamide] | > 80% | < 10 µM
[2H]C([2H])([2H])N(C(=O)Cn1nc(-c2cccc(C#N)c2)c2ccc(OC)cc2c1=O)c1ccc2nc(C)oc2c1 [Example 86, 2-(4-(3-cyanophenyl)-7-methoxy-1-oxophthalazin-2(1H)-yl)-N-(methyl-d3)-N-(2-methylbenzo[d]oxazol-6-yl)acetamide] | > 80% | < 10 µM
COc1ccc2c(-c3cccc(C#N)c3)nn(CC(=O)N(C)c3ccc4nc(C)oc4c3)c(=O)c2c1 [Example 87, 2-(4-(3-cyanophenyl)-7-methoxy-1-oxophthalazin-2(1H)-yl)-N-methyl-N-(2-methylbenzo[d]oxazol-6-yl)acetamide] | > 80% | < 10 µM
COc1cc2c(=O)n(CC(=O)N(C)c3ccc4nc(C)oc4c3)nc(-c3cccc(F)c3)c2cc1Cl [Example 93, 2-(6-chloro-4-(3-fluorophenyl)-7-methoxy-1-oxophthalazin-2(1H)-yl)-N-methyl-N-(2-methylbenzo[d]oxazol-6-yl)acetamide] | > 80% | 
COc1cc2c(=O)n(CC(=O)N(C)c3ccc4c(c3)OC(F)(F)O4)nc(-c3cccc(C#N)c3)c2cc1Cl [Example 96, 2-(6-chloro-4-(3-cyanophenyl)-7-methoxy-1-oxophthalazin-2(1H)-yl)-N-(2,2-difluorobenzo[d][1,3]dioxol-5-yl)-N-methylacetamide] | > 80% | < 10 µM
Cc1nc2ccc(N(C)C(=O)Cn3nc(-c4cccc(Cl)c4)c4ccc(O)cc4c3=O)cc2o1 [Example 98, 2-(4-(3-chlorophenyl)-7-hydroxy-1-oxophthalazin-2(1H)-yl)-N-methyl-N-(2-methylbenzo[d]oxazol-6-yl)acetamide] |  | < 10 µM
Cc1nc2ccc(N(C(=O)Cn3nc(-c4cccc(F)c4)c4ccc(O)cc4c3=O)C3CC3)cc2o1 [Example 99, N-cyclopropyl-2-(4-(3-fluorophenyl)-7-hydroxy-1-oxophthalazin-2(1H)-yl)-N-(2-methylbenzo[d]oxazol-6-yl)acetamide] | > 80% | 
Cc1nc2ccc(N(C(=O)Cn3nc(-c4cccc(Cl)c4)c4ccc(O)cc4c3=O)C3CC3)cc2o1 [Example 100, 2-(4-(3-chlorophenyl)-7-hydroxy-1-oxophthalazin-2(1H)-yl)-N-cyclopropyl-N-(2-methylbenzo[d]oxazol-6-yl)acetamide] |  | < 10 µM
CN(C(=O)Cn1nc(-c2cccc(C#N)c2)c2ccc(O)cc2c1=O)c1ccc2c(c1)OC(F)(F)O2 [Example 102, 2-(4-(3-cyanophenyl)-7-hydroxy-1-oxophthalazin-2(1H)-yl)-N-(2,2-difluorobenzo[d][1,3]dioxol-5-yl)-N-methylacetamide] | > 80% | < 10 µM
CCOc1ccc2c(-c3cccc(C#N)c3)nn(CC(=O)N(C)c3ccc4nc(C)oc4c3)c(=O)c2c1 [Example 109, 2-(4-(3-cyanophenyl)-7-ethoxy-1-oxophthalazin-2(1H)-yl)-N-methyl-N-(2-methylbenzo[d]oxazol-6-yl)acetamide] | > 80% | < 10 µM
Cc1nc2ccc(N(C)C(=O)Cn3nc(-c4cccc(C#N)c4)c4ccc(OC5CCCCC5)cc4c3=O)cc2o1 [Example 115, 2-(4-(3-cyanophenyl)-7-(cyclohexyloxy)-1-oxophthalazin-2(1H)-yl)-N-methyl-N-(2-methylbenzo[d]oxazol-6-yl)acetamide] | > 80% | < 10 µM

More lines, now with the values ahead:

Emax | EC50 | SMILES
> 80% |  | COc1ccc2c(-c3cccc(C#N)c3)nn(CC(=O)N(C)c3ccc4c(c3)OC(F)(F)O4)c(=O)c2c1 [Example 69, 2-(4-(3-cyanophenyl)-7-methoxy-1-oxophthalazin-2(1H)-yl)-N-(2,2-difluorobenzo[d][1, 3]dioxol-5-yl)-N-methylacetamide]
30 to 80% |  | COc1ccc2c(-c3ccc(S(N)(=O)=O)cc3)nn(CC(=O)N(C)c3ccc4c(c3)OC(F)(F)O4)c(=O)c2c1 [Example 71, N-(2,2-difluorobenzo[d][1,3]dioxol-5-yl)-2-(7-methoxy-1-oxo-4-(4-sulfamoylphenyl)phthalazin-2(1H)-yl)-N-methylacetamide]
> 80% |  | CCN(C(=O)Cn1nc(-c2ccc(S(N)(=O)=O)cc2)c2ccc(OC)cc2c1=O)c1ccc2c(c1)OC(F)(F)O2 [Example 72, N-(2,2-difluorobenzo[d][1,3]dioxol-5-yl)-N-ethyl-2-(7-methoxy-1-oxo-4-(4-sulfamoylphenyl)phthalazin-2(1H)-yl)-acetamide]
> 80% | < 10 µM | CCN(C(=O)Cn1nc(-c2cccc(C#N)c2)c2ccc(OC)cc2c1=O)c1ccc2c(c1)OC(F)(F)O2 [Example 75, 2-(4-(3-cyanophenyl)-7-methoxy-1-oxophthalazin-2(1H)-yl)-N-(2,2-difluorobenzo[d][1,3]dioxol-5-yl)-N-ethylacetamide]
> 80% |  | COc1ccc2c(-c3ccc(S(N)(=O)=O)cc3)nn(CC(=O)N(c3ccc4c(c3)OC(F)(F)O4)C(C)C)c(=O)c2c1 [Example 76, N-(2,2-difluorobenzo[d][1,3]dioxol-5-yl)-N-isopropyl-2-(7-methoxy-1-oxo-4-(4-sulfamoylphenyl)phthalazin-2(1H)-yl)acetamide]
30 to 80% |  | COc1ccc2c(-c3ccc(S(N)(=O)=O)cc3)nn(CC(=O)N(c3ccc4c(c3)OC(F)(F)O4)C3CC3)c(=O)c2c1 [Example 78, N-cyclopropyl-N-(2,2-difluorobenzo[d][1,3]dioxol-5-yl)-2-(7-methoxy-1-oxo-4-(4-sulfamoylphenyl)phthalazin-2(1H)-yl)acetamide]
30 to 80% |  | CCN(C(=O)Cn1nc(-c2ccc(C(N)=O)cc2)c2ccc(OC)cc2c1=O)c1ccc2c(c1)OC(F)(F)O2 [Example 82, 4-(3-(2-((2,2-difluorobenzo[d][1, 3]dioxol-5-yl)(ethyl)amino)-2-oxoethyl)-6-methoxy-4-oxo-3,4-dihydrophthalazin-1-yl)benzamide]
30 to 80% |  | COc1ccc2c(-c3ccc(C(N)=O)cc3)nn(CC(=O)N(C)c3ccc4c(c3)OC(F)(F)O4)c(=O)c2c1 [Example 83, 4-(3-(2-((2,2-difluorobenzo[d][1, 3]dioxol-5-yl)(methyl)amino)-2-oxoethyl)-6-methoxy-4-oxo-3,4-dihydrophthalazin-1-yl)benzamide]
30 to 80% |  | CCN(C(=O)Cn1nc(-c2ccc(C(N)=O)cc2)c2ccc(OC)cc2c1=O)c1ccc2nc(C)oc2c1 [Example 84, 4-(3-(2-(ethyl(2-methylbenzo[d]oxazol-6-yl)amino)-2-oxoethyl)-6-methoxy-4-oxo-3,4-dihydrophthalazin-1-yl)benzamide]
> 80% | < 10 µM | CCN(C(=O)Cn1nc(-c2cccc(C#N)c2)c2ccc(O)cc2c1=O)c1ccc2c(c1)OC(F)(F)O2 [Example 103, 2-(4-(3-cyanophenyl)-7-hydroxy-1-oxophthalazin-2(1H)-yl)-N-(2,2-difluorobenzo[d][1,3]dioxol-5-yl)-N-ethylacetamide]

— US10370366B2 (Flatley Discovery Lab, LLC, priority 2013, dated 2019)
